# Data taken from the METLIN SMRT retention time set (Domingo-Almenara et al. 2019).
# Experiment: gradient 5% acetonitrile 3 min, to 50% in 2 min, to 85% in 15 min, held 3 min, 100 µL/min
# Conditions: column: Zorbax Extend-C18 2.1 x 50 mm; eluents: water / acetonitrile, 0.1% formic acid
# Summary of the method: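 Mixtures of ~100 pure standards were chromatographed on a Zorbax Extend-C18 column (2.1 × 50 mm, 1.8 μm) at 100 μL/min using water and acetonitrile, each with 0.1% formic acid. Detection used a quadrupole time-of-flight mass spectrometer in positive and negative ionization mode, and data collection spanned 3 months. Retention time was obtained from adduct peaks picked computationally and each checked manually.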
row,SMILES,RP-LC retention time
1,COc1ccc(CNC(=O)C2CCN(c3nccn4nc(-c5cccs5)cc34)CC2)cc1,754 s
2,COc1cccc(CNC(=O)c2ccc3c(c2)N(C)C(=O)C2CCCCN32)c1 (centres undefined),842 s
3,O=C(NCc1ccccc1)c1ccc(-c2cccs2)nc1,884 s
4,CCn1cc(-c2nc(C(=O)NCc3ccc(F)cc3F)cs2)c2cccnc21,992 s
5,Cc1ccc(CNC(=O)Nc2ccc3nnc(C)n3c2)cc1,661 s
6,CCS(=O)(=O)Nc1ccc2nc(N3CCN(c4cc(C)ccc4C)CC3)cc(C(=O)O)c2c1,607 s
7,O=C(NCc1ccccc1C(F)(F)F)c1ccc2c(c1)ncn2CCN1CCCC1,599 s
8,O=C(Nc1ccc(Cl)cc1)C1CCCN(c2nc3ccccc3nc2C(F)(F)F)C1 (centres undefined),1290 s
9,CC1=C(c2ccc(F)cc2)S(=O)(=O)N=C1N1CCCN(C(=O)c2ccc(F)cc2)CC1,835 s
10,O=C(Cn1c(=O)c2cc(C3CC3)nn2c2ncccc21)NCc1cccs1,711 s
11,COCCN1CCC(CNC(=O)Cc2cccc3ccccc23)CC1,561 s
12,Cn1c(N2CCCC(C(=O)Nc3ccc(F)cc3F)C2)cc(=O)n(C)c1=O (centres undefined),700 s
13,CS(=O)(=O)N1CCC(CC(=O)NCCC2=CCCCC2)C1 (centres undefined),743 s
14,CCn1cc(C)c(C(=O)O)c1CC(=O)Nc1ccc2c(c1)OCCO2,762 s
15,CCN1CCN(C(=O)CC2CCN(S(=O)(=O)c3ccc(Cl)s3)CC2)CC1,647 s
16,COc1cc(-c2noc(CCn3nc(-c4ccc(Cl)cc4)ccc3=O)n2)cc(OC)c1OC,974 s
17,CCN1CCn2cc(S(=O)(=O)Nc3ccc(Cl)cc3F)cc2C1=O,752 s
18,COc1ccc(-n2c(=O)c(C(=O)Nc3ccc4c(c3)OCO4)c(O)c3cccnc32)cc1,1200 s
19,CN1C(=O)C2CCCCN2c2ccc(C(=O)NCCc3ccc(Cl)cc3)cc21 (centres undefined),971 s
20,COc1ccc(NC(=O)c2nc3nc(C)cc(C(F)F)n3n2)cc1Cl,813 s
21,CN1C(=O)Cc2cc(C(=O)NC3CCCC3)ccc21,665 s
22,CN1C(=O)COc2ccc(-c3csc(NC(=O)C4CCCCC4)n3)cc21,988 s
23,COc1ccc(-c2nc(N3CCSCC3)ncc2C(=O)O)cc1,854 s
24,CCOC(=O)c1cnc2nc(C)ccc2c1Nc1ccc(F)c(F)c1,703 s
25,COCC(O)Cn1ccnc1[N+](=O)[O-] (centres undefined),609 s
26,Cc1nc2cc(-c3noc(-c4ccc(Cl)cc4)n3)ccc2n(C)c1=O,872 s

row,SMILES,RP-LC retention time
1,COc1ccc(-n2c(=O)c3sccc3n(Cc3nc(-c4ccccc4OC)no3)c2=O)cc1,856 s
2,Cc1nc(-c2cc(S(=O)(=O)N(C)C3CCCCC3)c(C)s2)sc1C,1320 s
3,O=C(NCC1CCCO1)c1nc(-c2ccc(N3CCCC3)cc2)no1 (centres undefined),982 s
4,CCC(C)NC(=O)CN1CCN(C(=O)Nc2ccc(Cl)cc2)CC1=O (centres undefined),686 s
5,CCOc1ccccc1C(=O)N1CCN(c2cc(-c3cccs3)[nH]n2)CC1,781 s
6,Clc1nnc(N2CCSCC2)c2ccccc12,845 s
7,Cc1cccc(-n2c(=O)c3sccc3n(Cc3nc(-c4ccc(OC(C)C)cc4)no3)c2=O)c1,1120 s
8,CCOc1ccc(-c2noc(Cc3nnc(-c4cccc(Br)c4)o3)n2)cc1,1160 s
9,CCN(CC)S(=O)(=O)c1ccc2c(c1)CC(C(=O)NC1CCCCCCC1)N2C(C)=O (centres undefined),959 s
10,COC(=O)c1c(C)[nH]c(C(=O)N2CCCC(C(=O)NCCN3CCCCCC3)C2)c1C (centres undefined),610 s
11,O=C(c1cccc(N2CCNC(c3ccccc3)C2)n1)N1CCCN(c2ncccn2)CC1 (centres undefined),609 s
12,CN1C(=O)c2cc(C(=O)N3CCCCCC3)nn2CC1(C)C(=O)NC1CCCCCC1 (centres undefined),802 s
13,CCCNC(=O)CCc1nc2ccccc2n(CC(=O)Nc2cccc(OC)c2)c1=O,757 s
14,COc1ccc2[nH]cc(CCNC(=O)c3ccc(N4CCCC4)c(S(=O)(=O)N4CCCC4)c3)c2c1,921 s
15,O=C(NCCCN1CCOCC1)c1cc2occc2c(Nc2ccccc2)n1,644 s
16,CCN1CCN(CCNC(=O)c2cnc(-c3ccc(C)cc3)nc2-c2ccncc2)CC1,598 s
17,CC(C)Cc1nc(-c2ccccc2)oc1CC(=O)NCc1ccc(F)c(Cl)c1,1080 s
18,CCOc1ccc(CNC(=O)Cc2cn(C)c3ncccc23)cc1,698 s
19,COc1cccc2c(Nc3ccccc3)cc(C(=O)N3CCSCC3)nc12,656 s
20,CCOc1ccc(N2CC(CNS(=O)(=O)c3ccccc3C(F)(F)F)CC2=O)cc1 (centres undefined),824 s
21,CCn1cc(S(=O)(=O)NCCc2noc(-c3ccncc3)n2)cn1,645 s
22,Cn1cc(-c2cc3n(n2)CCC(=O)N3CC(=O)NCCCN2CCCCC2)c2ccccc21,616 s
23,Cc1cc2n(n1)CCC(=O)N2CCCC(=O)NCCc1ccccc1,666 s
24,COc1ccc(-c2nc3ccccn3c2Nc2ccccc2C)cc1,721 s
25,CCOc1cc(-c2ccccc2)nc2ccc(NS(=O)(=O)c3ccc(OC)c(OC)c3)cc12,730 s
26,COc1ccccc1NC(=O)Nc1nc(CC(=O)N2CCC(C(N)=O)CC2)cs1,640 s

# Second part, the molecule after the results:
row,RP-LC retention time,SMILES
1,634 s,COCCN1C(=O)c2ccccc2C(C(=O)NCCN2CCCCC2C)C1c1cccs1 (centres undefined)
2,720 s,Cn1cccc1C(=O)N1CCC(c2noc(-c3ccncc3)n2)C1 (centres undefined)
3,961 s,Cc1ccc(CNC(=O)C2(C)CN(S(C)(=O)=O)CC(=O)N2CCc2ccc(Cl)cc2)cc1 (centres undefined)
4,605 s,COc1ccc(CNC(=O)c2cn3ccccc3n2)cc1OC
5,728 s,CCOC(=O)C1CCN(C(=O)C2c3cc(OC)c(OC)cc3C(=O)N(C)C2c2cccs2)CC1 (centres undefined)
6,728 s,Cc1cc(Br)ccc1NC(=O)CCc1c(-c2ccc(F)cc2)nc2ccccn12
7,710 s,CC1CCCCN1CCNC(=O)c1c2c(cn(-c3ccc(Cl)cc3)c1=O)C(=O)CC(C)(C)C2 (centres undefined)
8,892 s,Cc1ccc(C)c(S(=O)(=O)N2CC[C@H](n3c(=O)n(C)c4cccnc43)C2)c1
9,603 s,O=C(c1n[nH]c2ccccc12)N1CCCn2nc(-c3ccncc3)cc2C1
10,742 s,Cc1ccc(Nc2c(-c3ccc(N(C)C)cc3)nc3ncccn23)cc1
11,926 s,Fc1ccc(-c2nnc(Cc3nc(-c4cccs4)no3)o2)cc1
12,849 s,CSc1nc(N2CCCC2)c2cnn(CCNC(=O)c3cc(-c4ccco4)on3)c2n1
13,703 s,Cc1ccc(NC(=O)Cn2cnc3nc(N4CCC(C(=O)NC5CC5)CC4)sc3c2=O)cc1F
14,675 s,CCCCc1ccc(NC(=O)N2CCc3nc[nH]c3C2)cc1
15,1000 s,COc1ccccc1NC(=O)N1CCCC1c1nc(-c2ccc(F)cc2F)no1 (centres undefined)
16,754 s,Cn1c(N2CCCC(C(=O)NCCC3=CCCCC3)C2)cc(=O)n(C)c1=O (centres undefined)
17,570 s,CCC(=O)NCc1nc2c(n1C)CN(S(=O)(=O)c1cccc(Cl)c1)CC2
18,1000 s,O=C(c1ccc(F)c(F)c1)N1CCCC1c1nc(-c2ccccc2Cl)no1 (centres undefined)
19,829 s,CCOc1ccc(-c2nc(-c3ccc4ncn(CC)c4c3)no2)cc1

row,RP-LC retention time,SMILES
1,608 s,COCC1CN(C2CCC2)CC12CCN(C(=O)Cc1ccsc1)CC2 (centres undefined)
2,785 s,COc1ncc(-c2ccc3nccc(-c4ccnnc4)c3c2)cc1NS(=O)(=O)c1ccc(F)cc1F
3,1100 s,O=C(Cn1cccc1-c1nc(-c2ccc3c(c2)OCO3)no1)Nc1ccc(F)c(F)c1
4,704 s,Cc1nc(-c2cc(S(=O)(=O)NCCCN3CCCC(C)C3)c(C)s2)sc1C (centres undefined)
5,738 s,CN(CC1CCOCC1)C(=O)Nc1ccccc1C(F)(F)F
6,762 s,O=C(NC1CCCCC1N1C(=O)CSC1=O)c1cc(-c2ccc(F)cc2)n[nH]1 (centres undefined)
7,933 s,O=C1CC(c2nc(-c3ccccc3)no2)CN1c1ccc2c(c1)OCCO2 (centres undefined)
8,716 s,COC1CCC12CCN(C(=O)c1c(C)noc1C)CC2 (centres undefined)
9,717 s,CCC(=O)N1CCc2sc(C(=O)N3CCN(c4ccc(OC)cc4)CC3)cc2C1
10,716 s,Cc1nn(-c2cc(N(C)C)ncn2)c(C)c1CCC(=O)NCc1ccccc1
11,646 s,COc1ccc(NC(=O)N2CCN(c3cc(C)nc(N4CCCC4)n3)CC2)c(OC)c1
12,759 s,COc1ccc(N2CC(c3nnc(NC(=O)c4ccc(Br)cc4)o3)CC2=O)cc1 (centres undefined)
13,1050 s,COC(=O)C1CCN(S(=O)(=O)c2ccc(Cl)c(-c3nnc(-c4ccc(OC)cc4)o3)c2)CC1
14,723 s,COC(=O)c1c(C)[nH]c(C(=O)N2CCCC(C(=O)N3CCCCCC3)C2)c1C (centres undefined)
15,745 s,COc1ccc(-n2cc(C(=O)OCc3cccnc3)c3ccccc3c2=O)cc1
16,885 s,O=C(NC1(c2nc(-c3ccncc3)no2)CCCCC1)c1ccccn1
17,676 s,COc1ccc(NC(=O)Cn2nc3nc(N4CCCC4)ccn3c2=O)cc1Cl
18,704 s,Cc1ccc2c(=O)c(C(=O)N3CCCC3)cn(CC(=O)Nc3ccccc3Cl)c2n1
